For this test, the system named is P388 leukemia ip, CD2F1 mice, survival T/C. The test can be described thus: NCI In Vivo Anticancer Drug Screen. Data for tumor model P388 Leukemia (intraperitoneal) in CD2F1 (CDF1) mice. The following applies: endpoint: median survival time, higher = longer survival. The gist of the method: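 Mice carrying the transplanted tumor received test compound or vehicle. Survival was recorded in each group, and the value is the treated-group measurement divided by that of the vehicle-treated control group.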

Where [1] appears, read: dose: 50.0 mg/kg/injection, schedule: Q01DX005 (ip), vehicle: saline with Tween-80.
[2] abbreviates: dose: 100.0 mg/kg/injection, schedule: Q01DX005 (ip), vehicle: saline with Tween-80.
[3] abbreviates: dose: 200.0 mg/kg/injection, schedule: Q01DX005 (ip), vehicle: saline with Tween-80.
Setting [4] is: dose: 12.5 mg/kg/injection, schedule: Q01DX009 (ip), vehicle: saline with Tween-80.
Where [5] appears, read: dose: 25.0 mg/kg/injection, schedule: Q01DX009 (ip), vehicle: saline with Tween-80.
[6] abbreviates: dose: 50.0 mg/kg/injection, schedule: Q01DX009 (ip), vehicle: saline with Tween-80.
The mark [7] stands for this setting: dose: 100.0 mg/kg/injection, schedule: Q01DX009 (ip), vehicle: saline with Tween-80.
Setting [8] is: dose: 200.0 mg/kg/injection, schedule: Q01DX009 (ip), vehicle: saline with Tween-80.

Toxic doses and inconclusive results are not listed.

As to `Cc1cc(O)c([N+](=O)[O-])c(O)c1`, the T/C was 96 % of control (dose: 50.0 mg/kg/injection, schedule: Q01DX009 (ip), vehicle: saline); 103 % of control (dose: 100.0 mg/kg/injection, schedule: Q01DX009 (ip), vehicle: saline); 100 % of control (dose: 200.0 mg/kg/injection, schedule: Q01DX009 (ip), vehicle: saline).

Turning to `Cn1ncc2c(N(CCO)CCO)ncnc21`, the T/C was 100 % of control (dose: 50.0 mg/kg/injection, schedule: Q01DX005 (ip), vehicle: saline); 100 % of control (dose: 100.0 mg/kg/injection, schedule: Q01DX005 (ip), vehicle: saline); 95 % of control (dose: 200.0 mg/kg/injection, schedule: Q01DX005 (ip), vehicle: saline).

For the compound `O=c1[nH]c(-c2cccnc2)nnc1-c1ccc(Cl)cc1`, the T/C reads like this: under setting [1], 102 % of control; under setting [2], 103 % of control; under setting [3], 96 % of control.

Take `COC(=O)c1ccc(Cl)cc1O`: the T/C reads like this: (dose: 12.5 mg/kg/injection, schedule: Q01DX009 (ip), vehicle: distilled water + Tween-80) 92 % of control; (dose: 25.0 mg/kg/injection, schedule: Q01DX009 (ip), vehicle: distilled water + Tween-80) 100 % of control; (dose: 50.0 mg/kg/injection, schedule: Q01DX009 (ip), vehicle: distilled water + Tween-80) 102 % of control; (dose: 100.0 mg/kg/injection, schedule: Q01DX009 (ip), vehicle: distilled water + Tween-80) 102 % of control; (dose: 200.0 mg/kg/injection, schedule: Q01DX009 (ip), vehicle: distilled water + Tween-80) 92 % of control.

`CNC1=C(C)C(=O)C(C)=C(C(C)(C)CC(=O)n2cc(F)c(=O)[nH]c2=O)C1=O`: the T/C was 117 % of control (dose: 100.0 mg/kg/injection, schedule: Q01DX001 (ip), vehicle: saline with Tween-80) and 122 % of control (dose: 200.0 mg/kg/injection, schedule: Q01DX001 (ip), vehicle: saline with Tween-80).

Take `CN(C)c1ccc(/C=C/c2ccnc3cc(Cl)ccc23)cc1`: the T/C runs as follows: under setting [4], 106 % of control; under setting [5], 116 % of control; under setting [6], 119 % of control.

As for `O=C1c2c(O)cccc2C(Br)c2cccc(O)c21`, the T/C runs as follows: (dose: 60.0 mg/kg/injection, schedule: Q01DX005 (ip), vehicle: Klucel (hydroxypropylcellulose) (HPC)) 107 % of control; (dose: 120.0 mg/kg/injection, schedule: Q01DX005 (ip), vehicle: Klucel (hydroxypropylcellulose) (HPC)) 114 % of control; (dose: 240.0 mg/kg/injection, schedule: Q01DX005 (ip), vehicle: Klucel (hydroxypropylcellulose) (HPC)) 98 % of control.

Take `CC1CCC2C(C)C(=O)OC3OC4(C)CCC1C32OO4` (stereo not given): the T/C was 105 % of control (dose: 2.5 mg/kg/injection, schedule: Q01DX005 (ip), vehicle: saline + alcohol); 108 % of control (dose: 5.0 mg/kg/injection, schedule: Q01DX005 (ip), vehicle: saline + alcohol); 108 % of control (dose: 10.0 mg/kg/injection, schedule: Q01DX005 (ip), vehicle: saline + alcohol); 105 % of control (dose: 20.0 mg/kg/injection, schedule: Q01DX005 (ip), vehicle: saline + alcohol).

On to `O=S(=O)(O)SCCNCCc1ccccn1`, for which the T/C reads like this: (dose: 12.5 mg/kg/injection, schedule: Q01DX005 (ip), vehicle: water) 104 % of control; (dose: 25.0 mg/kg/injection, schedule: Q01DX005 (ip), vehicle: water) 109 % of control; (dose: 50.0 mg/kg/injection, schedule: Q01DX005 (ip), vehicle: water) 109 % of control; (dose: 100.0 mg/kg/injection, schedule: Q01DX005 (ip), vehicle: water) 107 % of control.

Consider `O=C(N/N=C/c1ccccc1F)c1ccncc1`, for which the T/C is, setting by setting: under setting [6], 98 % of control; under setting [7], 97 % of control; under setting [8], 104 % of control.

As for `C=CCNSc1ccccc1`, the T/C reads like this: (dose: 12.5 mg/kg/injection, schedule: Q01DX009 (ip), vehicle: Klucel (hydroxypropylcellulose) (HPC)) 112 % of control; (dose: 25.0 mg/kg/injection, schedule: Q01DX009 (ip), vehicle: Klucel (hydroxypropylcellulose) (HPC)) 109 % of control.

For the compound `Cc1cc(=O)n2c([nH]c3ccccc32)c1N=Nc1ccccc1`, the T/C (dose: 50.0 mg/kg/injection, schedule: Q01DX005 (ip), vehicle: Klucel (hydroxypropylcellulose) (HPC)) is 93 % of control; the T/C (dose: 100.0 mg/kg/injection, schedule: Q01DX005 (ip), vehicle: Klucel (hydroxypropylcellulose) (HPC)) is 92 % of control; the T/C (dose: 200.0 mg/kg/injection, schedule: Q01DX005 (ip), vehicle: Klucel (hydroxypropylcellulose) (HPC)) is 100 % of control.

For `CCOC(=O)Nc1c(CC(C)(C)O)n[nH]c1C`, the T/C is 103 % of control under setting [1], 100 % of control under setting [2] and 100 % of control under setting [3].

As to `O=S1(=O)CN2C=CC=CC2=N1`, the T/C runs as follows: (dose: 6.25 mg/kg/injection, schedule: Q01DX009 (ip), vehicle: saline with Tween-80) 106 % of control; under setting [4], 104 % of control; under setting [5], 105 % of control; under setting [6], 105 % of control.

With `O=C1C=C(CCC2=CC(=O)c3ccccc3C2=O)C(=O)c2ccccc21`, the T/C is 100 % of control (dose: 60.0 mg/kg/injection, schedule: Q01DX005 (ip), vehicle: saline with Tween-80) and 94 % of control (dose: 120.0 mg/kg/injection, schedule: Q01DX005 (ip), vehicle: saline with Tween-80).

For the compound `NC(=O)NC1CCCCCC1`, the T/C reads like this: (dose: 100.0 mg/kg/injection, schedule: Q04DX003 (ip), vehicle: saline with Tween-80) 100 % of control; (dose: 200.0 mg/kg/injection, schedule: Q04DX003 (ip), vehicle: saline with Tween-80) 100 % of control; (dose: 400.0 mg/kg/injection, schedule: Q04DX003 (ip), vehicle: saline with Tween-80) 109 % of control.

As for `COC(=O)/C=C(\Cl)C(=O)OC`, the T/C runs as follows: (dose: 0.62 mg/kg/injection, schedule: Q01DX009 (ip), vehicle: saline with Tween-80) 101 % of control; (dose: 1.25 mg/kg/injection, schedule: Q01DX009 (ip), vehicle: saline with Tween-80) 101 % of control; (dose: 2.5 mg/kg/injection, schedule: Q01DX009 (ip), vehicle: saline with Tween-80) 105 % of control; (dose: 5.0 mg/kg/injection, schedule: Q01DX009 (ip), vehicle: saline with Tween-80) 102 % of control; (dose: 10.0 mg/kg/injection, schedule: Q01DX009 (ip), vehicle: saline with Tween-80) 105 % of control.

For the compound `O=S(=O)(O)O.[NH2-].[NH2-].[Pt+2]`, the T/C was 112 % of control (dose: 1.56 mg/kg/injection, schedule: Q04DX002 (ip), vehicle: saline with Tween-80); 162 % of control (dose: 6.25 mg/kg/injection, schedule: Q04DX002 (ip), vehicle: saline with Tween-80); 156 % of control (dose: 12.5 mg/kg/injection, schedule: Q04DX002 (ip), vehicle: saline with Tween-80).

`CC(=O)Nc1c(I)c(C(=O)NC2C(O)OC(CO)C(O)C2O)c(I)c(N(C)C(C)=O)c1I` (stereo not given): the T/C (dose: 60.0 mg/kg/injection, schedule: Q01DX005 (ip), vehicle: saline) was 100 % of control; the T/C (dose: 120.0 mg/kg/injection, schedule: Q01DX005 (ip), vehicle: saline) was 100 % of control; the T/C (dose: 240.0 mg/kg/injection, schedule: Q01DX005 (ip), vehicle: saline) is 107 % of control.

Take `CCCCCOC(=O)CC(N)C(=O)OCCCCC` (stereo not given): the T/C was 100 % of control under setting [6], 100 % of control under setting [7] and 90 % of control under setting [8].

For the compound `c1ccc2c(c1)-c1cc3ccc4ccccc4c3nc1C1OC21` (stereo not given), the T/C was 105 % of control (dose: 25.0 mg/kg/injection, schedule: Q04DX002 (ip), vehicle: saline with Tween-80); 99 % of control (dose: 50.0 mg/kg/injection, schedule: Q04DX002 (ip), vehicle: saline with Tween-80); 100 % of control (dose: 100.0 mg/kg/injection, schedule: Q04DX002 (ip), vehicle: saline with Tween-80).

With `Cc1ncc([N+](=O)[O-])n1Cc1nncs1`, the T/C (dose: 50.0 mg/kg/injection, schedule: Q01DX009 (ip), vehicle: Klucel (hydroxypropylcellulose) (HPC)) was 108 % of control; the T/C (dose: 100.0 mg/kg/injection, schedule: Q01DX009 (ip), vehicle: Klucel (hydroxypropylcellulose) (HPC)) was 107 % of control; the T/C (dose: 200.0 mg/kg/injection, schedule: Q01DX009 (ip), vehicle: Klucel (hydroxypropylcellulose) (HPC)) was 104 % of control.

The values above are taken from PubChem BioAssay AID330 (DTP/NCI, 2004).
